Test results from patent publication US20040121947A1, “Compounds which inhibit beta-secretase activity and methods of use thereof” (Oklahoma Medical Research Foundation, priority 2000, published 2004).
Like-named read-outs stand apart in the source and are kept apart here.

Target: T1, memapsin 2 (Homo sapiens, UniProt P56817)
T1 construct: pET-11 vector-derived residues 1-15 of promemapsin 2-T1 (N, cleaved yes); made in house; host or cells: E. coli
Assay: Inhibition of memapsin 2 proteolytic activity, fluorogenic substrate FS-2
Type: biochemical
Settings: for Vi/Vo: ratio of initial cleavage velocities of FS-2 with/without compound, enzyme and inhibitor concentrations equal (e.g., about 80 nM, 100 nM)
Experimental: Ki is the inhibition equilibrium constant which indicates the ability of compounds to inhibit the β-secretase activity of memapsin 2 and memapsin 1. […] The K1 value is independent of the substrate, and converted from Ki apparent.
The Vi/Vo values depicted in Table 1 were determined at conditions under which the enzyme and inhibitor concentrations were equal (e.g., about 80 nM, 100 nM).
The relationship of Ki (independent of substrate concentration) to Kiapp is a function of substrate concentration in the assay and the Km for cleavage of the substrate by either memapsin 1 or memapsin 2 by the relationship:
The spontaneously activated memapsin 2 was employed in assays to assess the inhibition of memapsin 2 relative to memapsin 1 by compounds of the invention and in some crystallization studies.
An aliquot of the inhibitor of known concentration in DMSO was diluted into 1.8 ml 0.1 M NaOAc, pH 4.0. DMSO and added to a final concentration of 10% (v/v), and memapsin 2 (final concentration of 80 nM), followed by a 20 minute equilibration at 37° C. Compounds were evaluated for the ability to inhibit memapsin 1 and memapsin 2 at concentrations between about 10 nM and about 10 μm of inhibitor.

[1] = memapsin 2, independent of substrate, converted from Ki apparent, read-out: Ki
[2] = memapsin 2, apparent Ki in presence of substrate FS-2
[3] = memapsin 2, independent of substrate, converted from Ki apparent
[4] = memapsin 2, apparent Ki in presence of substrate FS-2, read-out: Ki app

T1 sequence (P56817 41-454 limits assumed): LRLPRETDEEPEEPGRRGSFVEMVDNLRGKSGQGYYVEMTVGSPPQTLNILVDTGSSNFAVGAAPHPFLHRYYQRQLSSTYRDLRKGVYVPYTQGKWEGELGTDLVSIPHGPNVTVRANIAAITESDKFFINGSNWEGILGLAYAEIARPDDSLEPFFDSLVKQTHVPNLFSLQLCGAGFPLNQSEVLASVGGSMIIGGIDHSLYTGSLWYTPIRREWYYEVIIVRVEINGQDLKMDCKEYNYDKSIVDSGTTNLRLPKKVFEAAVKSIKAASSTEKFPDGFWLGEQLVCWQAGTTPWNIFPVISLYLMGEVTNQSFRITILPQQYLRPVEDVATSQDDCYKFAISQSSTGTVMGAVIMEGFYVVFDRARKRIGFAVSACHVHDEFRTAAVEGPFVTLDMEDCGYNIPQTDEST

Structure (SMILES) | Ki [1] [nM] | Ki [4] [nM] | Vi/Vo | further results
CCC(C)[C@H](NC(=O)[C@H](C)C[C@H](O)[C@H](CC(C)C)NC(=O)[C@H](CCO)NC(=O)c1cnc2ccccc2c1)C(=O)N[C@H]1c2ccccc2C[C@H]1O (stereo partly drawn) [MMI-050] | 91200 |  |  | 
CSCC[C@H](NC(=O)[C@@H](NC(=O)OC(C)(C)C)C(C)C)C(=O)N[C@@H](CC(C)C)[C@@H](O)C[C@@H](C)C(=O)N[C@H]1CCCC[C@@H]1O [MMI-051] |  |  |  | Ki app [2]: N.I.; Ki [3]: N.I.
CSCC[C@H](NC(=O)[C@@H](NC(=O)OC(C)(C)C)C(C)C)C(=O)N[C@@H](CC(C)C)[C@@H](O)C[C@@H](C)C(=O)N[C@@H]1c2ccccc2C[C@@H]1O [MMI-053] |  |  |  | Ki app [2]: N.I.; Ki [3]: N.I.
CC(C)C[C@H](NC(=O)[C@H](CCS(C)(=O)=O)NC(=O)[C@@H](NC(=O)OC(C)(C)C)C(C)C)[C@@H](O)C[C@@H](C)C(=O)N[C@@H]1c2ccccc2C[C@@H]1O [MMI-054] | 293000 |  |  | 
CSCC[C@H](NC(=O)[C@@H](NC(=O)OC(C)(C)C)C(C)C)C(=O)N[C@@H](CC(C)C)[C@@H](O)C[C@@H](C)C(=O)N[C@H]1CCCC[C@@H]1O [MMI-055] | 394000 |  |  | 
CSCC[C@H](NC(=O)[C@@H](NC(=O)OC(C)(C)C)C(C)C)C(=O)N[C@@H](CC(C)C)[C@@H](O)C[C@@H](C)C(=O)N[C@@H]1CCCC[C@@H]1O [MMI-057] | 45800 | 73300 |  | 
CSCC[C@H](NC(=O)[C@@H](NC(=O)OC(C)(C)C)C(C)C)C(=O)N[C@@H](CC(C)C)[C@@H](O)C[C@@H](C)C(=O)N[C@@H]1CCCC[C@@H]1O [MMI-059] | 41400 | 66300 |  | 
CSCC[C@H](NC(=O)[C@@H](NC(=O)OC(C)(C)C)C(C)C)C(=O)N[C@@H](CC(C)C)[C@@H](O)CN(C)C(=O)[C@H](NC(=O)OCc1ccccc1)C(C)C [MMI-061] | 9.66e+06 |  |  | 
CC(C)C[C@H](NC(=O)[C@@H](NC(=O)OC(C)(C)C)C(C)C)[C@@H](O)CN(C)C(=O)[C@H](NC(=O)OCc1ccccc1)C(C)C [MMI-062] |  |  |  | Ki app [2]: N.I.; Ki [3]: N.I.
CSCC[C@H](NC(=O)[C@@H](NC(=O)OC(C)(C)C)C(C)C)C(=O)N[C@@H](CC(C)C)[C@@H](O)C[C@@H](C)C(=O)N[C@@H](CC(C)C)C(=O)NCCc1c[nH]c2ccccc12 [MMI-065] | 42.9 | 68.7 |  | 
CSCC[C@H](NC(=O)[C@@H](NC(=O)OC(C)(C)C)C(C)C)C(=O)N[C@@H](CC(C)C)[C@@H](O)C[C@@H](C)C(=O)N[C@@H](CC(C)C)C(=O)NC1Cc2ccccc2C1 [MMI-066] | 13.2 | 21.2 |  | 
CC(C)C[C@H](NC(=O)[C@H](C)C[C@H](O)[C@H](CC(C)C)NC(=O)[C@H](CCS(C)(=O)=O)NC(=O)[C@@H](NC(=O)OC(C)(C)C)C(C)C)C(=O)NC1Cc2ccccc2C1 [MMI-067] | 45.9 | 73.5 |  | 
CSCC[C@H](NC(=O)[C@H](CC(C)C)NC(=O)OC(C)(C)C)C(=O)N[C@@H](CC(C)C)[C@@H](O)C[C@@H](C)C(=O)N[C@H](C(=O)NCc1ccccc1)C(C)C [MMI-070] | 3.06 | 4.9 |  | 
CC(C)C[C@H](NC(=O)OC(C)(C)C)C(=O)N[C@@H](CCS(C)(=O)=O)C(=O)N[C@@H](CC(C)C)[C@@H](O)C[C@@H](C)C(=O)N[C@H](C(=O)NCc1ccccc1)C(C)C [MMI-071] | 1.18 | 1.9 |  | 
CSCC[C@H](NC(=O)[C@@H](NC(=O)OC(C)(C)C)C(C)C)C(=O)N[C@@H](CC(C)C)[C@@H](O)C[C@@H](C)C(=O)N[C@@H](C(=O)NCc1ccccc1)[C@@H](C)O [MMI-072] |  |  | 0.9 | 
CSCCC(NC(=O)[C@@H](NC(=O)OC(C)(C)C)C(C)C)C(=O)N[C@@H](CC(C)C)[C@@H](O)C[C@@H](C)C(=O)N[C@H](C(=O)NCc1ccccc1)[C@H](C)O (stereo partly drawn) [MMI-081] |  |  | 0.87 | 
CC(C)C[C@H](NC(=O)C(CCS(C)(=O)=O)NC(=O)[C@@H](NC(=O)OC(C)(C)C)C(C)C)[C@@H](O)C[C@@H](C)C(=O)N[C@H](C(=O)NCc1ccccc1)[C@H](C)O (stereo partly drawn) [MMI-082] |  |  | 0.72 | 
CSCC[C@H](NC(=O)[C@@H](NC(=O)OC(C)(C)C)C(C)C)C(=O)N[C@@H](CC(C)C)[C@@H](O)C[C@@H](C)C(=O)N[C@H](C(=O)NCc1cccnc1)C(C)C [MMI-087] | 565 | 905 |  | 
CC(C)C[C@H](NC(=O)[C@H](CCS(C)(=O)=O)NC(=O)[C@@H](NC(=O)OC(C)(C)C)C(C)C)[C@@H](O)C[C@@H](C)C(=O)N[C@H](C(=O)NCc1cccnc1)C(C)C [MMI-088] | 646 | 1030 |  | 
CSCC[C@H](NC(=O)[C@H](CC(C)C)NS(=O)(=O)c1ccc(C)cc1)C(=O)N[C@@H](CC(C)C)[C@@H](O)C[C@@H](C)C(=O)N[C@H](C(=O)NCc1ccccc1)C(C)C [MMI-089] | 197 | 315 |  | 
Cc1ccc(S(=O)(=O)N[C@@H](CC(C)C)C(=O)N[C@@H](CCS(C)(=O)=O)C(=O)N[C@@H](CC(C)C)[C@@H](O)C[C@@H](C)C(=O)N[C@H](C(=O)NCc2ccccc2)C(C)C)cc1 [MMI-090] | 194 | 311 |  | 
CSCC[C@H](NC(=O)[C@H](CC(C)C)NS(C)(=O)=O)C(=O)N[C@@H](CC(C)C)[C@@H](O)C[C@@H](C)C(=O)N[C@H](C(=O)NCc1ccccc1)C(C)C [MMI-093] | 7.45 | 11.9 |  | 
CSCC[C@H](NC(=O)[C@H](CC(C)C)NC(C)=O)C(=O)N[C@@H](CC(C)C)[C@@H](O)C[C@@H](C)C(=O)N[C@H](C(=O)NCc1ccccc1)C(C)C [MMI-094] | 40.1 | 64.1 |  | 

Continued, in another order:

Ki [1] [nM] | Ki [4] [nM] | Vi/Vo | Structure (SMILES) | further results
51.7 | 82.8 |  | CSCCC(NC(=O)[C@H](CC(C)C)NC(=O)OC(C)(C)C)C(=O)N[C@@H](CC(C)C)[C@@H](O)C[C@@H](C)C(=O)N[C@@H](CC(C)C)C(=O)NCc1ccccc1 (stereo partly drawn) [MMI-097] | 
182 | 290 |  | CC[C@H](C)[C@H](NC(=O)[C@H](C)C[C@H](O)[C@H](CC(C)C)NC(=O)C(CCSC)NC(=O)[C@H](CC(C)C)NC(=O)OC(C)(C)C)C(=O)NCc1ccccc1 (stereo partly drawn) [MMI-099] | 
520 | 831 |  | CSCC[C@@H](NC(=O)[C@H](CC(C)C)NC(=O)OC(C)(C)C)C(=O)N[C@@H](CC(C)C)[C@@H](O)C[C@@H](C)C(=O)N[C@H](C(=O)NCc1ccccc1)C(C)C [MMI-104] | 
125 | 201 |  | CC(C)C[C@H](NC(=O)OC(C)(C)C)C(=O)N[C@H](CCS(C)(=O)=O)C(=O)N[C@@H](CC(C)C)[C@@H](O)C[C@@H](C)C(=O)N[C@H](C(=O)NCc1ccccc1)C(C)C [MMI-105] | 
62.1 | 99.9 |  | CSCC[C@H](NC(=O)[C@H](CC(C)C)NC(=O)OC(C)(C)C)C(=O)N[C@@H](CC(C)C)[C@H](O)C[C@@H](C)C(=O)N[C@H](C(=O)NCc1ccccc1)C(C)C [MMI-113] | 
276 | 441 |  | CSCC[C@@H](COC(=O)N[C@@H](CC(C)C)[C@@H](O)C[C@@H](C)C(=O)N[C@H](C(=O)NCc1ccccc1)C(C)C)NC(=O)[C@@H](NC(=O)OC(C)(C)C)C(C)C [MMI-114] | 
236 | 378 | 1.04 | CSCC[C@H](NC(=O)NCc1ccco1)C(=O)N[C@@H](CC(C)C)[C@@H](O)C[C@@H](C)C(=O)N[C@H](C(=O)NCc1ccccc1)C(C)C [MMI-115] | 
 |  | 0.57 | CSCC[C@H](NC(=O)NCc1ccco1)C(=O)N[C@@H](CC(C)C)[C@@H](O)C[C@@H](C)C(=O)N[C@H](C(=O)NCc1ccccc1)C(C)C [MMI-117] | 
194 | 311 | 0.48 | CSCC[C@H](NC(=O)OCc1ccoc1)C(=O)N[C@@H](CC(C)C)[C@@H](O)C[C@@H](C)C(=O)N[C@H](C(=O)NCc1ccccc1)C(C)C [MMI-118] | 
 |  | 0.38 | CSCC[C@H](NC(=O)OCc1ccco1)C(=O)N[C@@H](CC(C)C)[C@@H](O)C[C@@H](C)C(=O)N[C@H](C(=O)NCc1ccccc1)C(C)C [MMI-119] | 
1130 | 1800 | 0.66 | CSCC[C@H](NC(=O)c1cccc(O)c1C)C(=O)N[C@@H](CC(C)C)[C@@H](O)C[C@@H](C)C(=O)N[C@@H](CC(C)C)C(=O)NCc1ccccc1 [MMI-120] | Ki (Ki, [I] < 100, memapsin 2, [I] < 100 (nM)): 175 nM
5970 | 9550 |  | CSCC[C@H](NC(=O)[C@@H](NC(=O)c1cccc(O)c1C)C(C)C)C(=O)N[C@@H](CC(C)C)[C@@H](O)C[C@@H](C)C(=O)N[C@@H](CC(C)C)C(=O)NCc1ccccc1 [MMI-121] | 
 |  | 1.17 | Cc1c(O)cccc1C(=O)N[C@H](C(=O)N[C@@H](CCS(C)(=O)=O)C(=O)N[C@@H](CC(C)C)[C@@H](O)C[C@@H](C)C(=O)N[C@@H](CC(C)C)C(=O)NCc1ccccc1)C(C)C [MMI-122] | 
 |  | 0.61 | Cc1c(O)cccc1C(=O)N[C@@H](CCS(C)(=O)=O)C(=O)N[C@@H](CC(C)C)[C@@H](O)C[C@@H](C)C(=O)N[C@@H](CC(C)C)C(=O)NCc1ccccc1 [MMI-123] | 
 |  | 0.93 | CSC[C@H](NC(=O)OCc1ccccn1)C(=O)N[C@@H](CC(C)C)[C@@H](O)C[C@@H](C)C(=O)N[C@@H](CC(C)C)C(=O)NCc1ccccc1 [MMI-124] | 
 |  | 0.76 | CSC[C@H](NC(=O)OCc1ccccn1)C(=O)N[C@@H](CC(C)C)[C@@H](O)C[C@@H](C)C(=O)N[C@H](C(=O)NCc1ccccc1)C(C)C [MMI-125] | 
